pIC50: −log10 of the molar value. Read-outs that look alike come from different tables or passages of the source.
Tests used:
[1] = target: T1, PI3K (Homo sapiens, UniProt P42336); assay: Fluorescence polarization assay for PI3K; type: biochemical; settings: read-out: PI3 Kinase α IC50
T1 construct: PI3 Kinase α IC50; other: PI3 Kinase α; other: PI3 Kinase α isoform, fluorescence polarization
Summary of the method: (§1)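 Fluorescence-polarization competition readout: after 30–60 min of PIP2/ATP turnover in 1% DMSO, a stop mix with GST-GRP (70 nM) and red probe (10 nM) was added.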

[2] = target: T2, PI3K (Homo sapiens, UniProt P48736); assay: Fluorescence polarization assay for PI3K; type: biochemical; settings: read-out: PI3 Kinase γ IC50
T2 construct: PI3 Kinase γ IC50; other: PI3 Kinase γ; other: PI3 Kinase γ isoform, fluorescence polarization
T2 sequence (P48736 whole entry, canonical isoform): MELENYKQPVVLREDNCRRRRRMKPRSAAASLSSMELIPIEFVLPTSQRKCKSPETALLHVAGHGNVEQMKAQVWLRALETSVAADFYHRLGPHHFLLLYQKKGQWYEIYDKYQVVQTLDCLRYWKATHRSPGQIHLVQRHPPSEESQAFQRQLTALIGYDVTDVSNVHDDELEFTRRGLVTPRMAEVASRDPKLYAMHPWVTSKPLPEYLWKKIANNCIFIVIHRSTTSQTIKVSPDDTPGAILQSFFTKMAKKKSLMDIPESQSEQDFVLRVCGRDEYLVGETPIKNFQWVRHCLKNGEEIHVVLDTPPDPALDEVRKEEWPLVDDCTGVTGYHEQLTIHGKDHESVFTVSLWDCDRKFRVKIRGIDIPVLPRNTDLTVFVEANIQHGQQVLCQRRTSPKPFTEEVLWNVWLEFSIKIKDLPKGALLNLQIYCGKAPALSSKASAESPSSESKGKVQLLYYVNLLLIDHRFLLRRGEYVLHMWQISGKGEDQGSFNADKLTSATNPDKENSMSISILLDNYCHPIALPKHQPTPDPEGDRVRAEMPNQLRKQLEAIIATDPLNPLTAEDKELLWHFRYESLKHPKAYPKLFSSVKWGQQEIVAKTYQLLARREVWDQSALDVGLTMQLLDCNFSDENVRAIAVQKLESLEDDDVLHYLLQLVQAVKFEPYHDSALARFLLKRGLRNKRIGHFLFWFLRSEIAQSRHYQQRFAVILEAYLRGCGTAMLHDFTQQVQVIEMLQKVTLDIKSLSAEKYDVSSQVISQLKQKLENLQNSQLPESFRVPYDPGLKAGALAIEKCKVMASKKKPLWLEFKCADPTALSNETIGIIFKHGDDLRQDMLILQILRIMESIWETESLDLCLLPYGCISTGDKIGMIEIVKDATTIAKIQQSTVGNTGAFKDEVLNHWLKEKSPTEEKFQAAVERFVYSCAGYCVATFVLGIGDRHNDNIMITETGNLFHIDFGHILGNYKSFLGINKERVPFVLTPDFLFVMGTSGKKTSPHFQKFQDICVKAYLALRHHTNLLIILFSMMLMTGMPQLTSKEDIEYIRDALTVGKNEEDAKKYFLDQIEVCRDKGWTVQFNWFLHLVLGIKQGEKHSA
Summary of the method: as §1

[3] = target: T3, Human mTOR (FLAG-TOR) (Homo sapiens, UniProt P42345); assay: Human mTOR kinase assay with purified enzyme, DELFIA format; type: biochemical
T3 construct: FLAG
Summary of the method: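 DELFIA readout: Eu-anti-P(T389)-S6K antibody (40 ng/mL, 1 h) on captured His6-S6K from the stopped reaction. Kinase step used purified FLAG-tagged human mTOR with test compound in HEPES (pH 7.4)/MnCl2/DTT buffer, 2 h at room temperature (linear 1–6 h), terminated by EDTA/EGTA.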

[4] = system: breast line MDA468; assay: In vitro cell culture growth assay (MTS), MDA468; type: cell-based; settings: Homo sapiens, 72 h, MDA468 cells, three days after drug treatment
Summary of the method: (§2)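 The readout was MTS dye metabolism at 490 nm, taken after 3-day drug exposure that began the day after seeding. Growth was expressed as percent of vehicle-treated wells in the same plate.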

[5] = system: prostate line LNCap; assay: In vitro cell culture growth assay (MTS), LNCap; type: cell-based; settings: Homo sapiens, LNCaP, 72 h, LNCap cells, three days after drug treatment
Summary of the method: as §2

[6] = PI3 Kinase α isoform, fluorescence polarization
[7] = PI3 Kinase γ isoform, fluorescence polarization
[8] = purified human mTOR enzyme, DELFIA format

T1 sequence (P42336 whole entry, canonical isoform): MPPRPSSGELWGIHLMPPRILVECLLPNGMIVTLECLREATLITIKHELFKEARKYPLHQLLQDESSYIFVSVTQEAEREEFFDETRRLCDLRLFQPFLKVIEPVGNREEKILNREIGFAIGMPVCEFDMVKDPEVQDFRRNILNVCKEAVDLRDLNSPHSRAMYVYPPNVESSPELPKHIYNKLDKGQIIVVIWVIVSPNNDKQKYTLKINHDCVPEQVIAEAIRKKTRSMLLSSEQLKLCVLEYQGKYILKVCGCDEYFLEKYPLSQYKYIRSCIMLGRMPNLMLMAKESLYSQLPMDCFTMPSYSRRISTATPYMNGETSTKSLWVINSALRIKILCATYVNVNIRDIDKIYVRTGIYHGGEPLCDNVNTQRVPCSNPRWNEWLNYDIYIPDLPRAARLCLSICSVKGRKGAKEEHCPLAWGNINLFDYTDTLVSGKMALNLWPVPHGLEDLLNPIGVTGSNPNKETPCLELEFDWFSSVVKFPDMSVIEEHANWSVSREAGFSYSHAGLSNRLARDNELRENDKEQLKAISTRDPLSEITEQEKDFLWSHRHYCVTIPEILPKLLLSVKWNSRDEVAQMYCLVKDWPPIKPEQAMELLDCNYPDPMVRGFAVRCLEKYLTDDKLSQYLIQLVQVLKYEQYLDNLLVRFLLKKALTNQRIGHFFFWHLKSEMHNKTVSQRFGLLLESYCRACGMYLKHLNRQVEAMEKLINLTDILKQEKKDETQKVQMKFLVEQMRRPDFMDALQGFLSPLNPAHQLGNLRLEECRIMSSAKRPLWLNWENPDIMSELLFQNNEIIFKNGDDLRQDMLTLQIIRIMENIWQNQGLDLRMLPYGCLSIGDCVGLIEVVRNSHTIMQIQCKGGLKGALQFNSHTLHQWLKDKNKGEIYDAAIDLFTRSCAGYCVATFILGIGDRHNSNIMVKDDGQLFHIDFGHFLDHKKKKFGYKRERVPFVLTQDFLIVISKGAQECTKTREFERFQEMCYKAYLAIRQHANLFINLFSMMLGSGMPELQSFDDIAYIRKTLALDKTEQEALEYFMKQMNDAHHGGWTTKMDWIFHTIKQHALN

Row | pIC50 [1, 6] | pIC50 [2, 7] | pIC50 [3, 8] | pIC50 [5] | pIC50 ([1]; PI3 Kinase α) | pIC50 ([2]; PI3 Kinase γ) | pIC50 [3] | SMILES | pIC50 [4]
1 |  |  |  | 6.68 | 6.14 | < 5.00 | 8.82 | CNC(=O)Nc1ccc(-c2nc(N3CC4CCC(C3)O4)c3cnn(CCC#N)c3n2)cc1 [Example 214, 1-{4-[1-(2-cyanoethyl)-4-(8-oxa-3-azabicyclo[3.2.1]oct-3-yl)-1H-pyrazolo[3,4-d]pyrimidin-6-yl]phenyl}-3-methylurea] | 6.24
2 | 5.72 | < 5.00 | 7.41 | 6.72 |  |  |  | CN1CCN(c2ccc(NC(=O)Nc3ccc(-c4nc(N5C[C@H]6C[C@@H]5CO6)c5cnn(CC(F)(F)F)c5n4)cc3)cc2)CC1 [Example 345, 1-[4-(4-methylpiperazin-1-yl)phenyl]-3-(4-{4-[(1R,4R)-2-oxa-5-azabicyclo[2.2.1]hept-5-yl]-1-(2,2,2-trifluoroethyl)-1H-pyrazolo[3,4-d]pyrimidin-6-yl}phenyl)urea] | 6.35
3 |  |  |  | 8.40 | 6.06 | < 5.00 | 9.18 | CN(C)c1ccc(NC(=O)Nc2ccc(-c3nc(N4CC5CCC(C4)O5)c4cnn(CCF)c4n3)cc2)cc1 [Example 242, 1-[4-(dimethylamino)phenyl]-3-{4-[1-(2-fluoroethyl)-4-(8-oxa-3-azabicyclo[3.2.1]oct-3-yl)-1H-pyrazolo[3,4-d]pyrimidin-6-yl]phenyl}urea] | 7.72
4 |  |  |  | 7.10 | 5.68 | < 5.00 | 8.26 | CNC(=O)Nc1ccc(-c2nc(N3C[C@@H]4C[C@H]3CO4)c3cnn(CC(F)(F)F)c3n2)cc1 [Example 292, 1-methyl-3-(4-{4-[(1S,4S)-2-oxa-5-azabicyclo[2.2.1]hept-5-yl]-1-(2,2,2-trifluoroethyl)-1H-pyrazolo[3,4-d]pyrimidin-6-yl}phenyl)urea] | 6.52
5 | 7.06 | 5.90 | 10.10 | > 9.00 |  |  |  | COC1CCC(n2ncc3c(N4CC5CCC(C4)O5)nc(-c4ccc(NC(=O)Nc5ccc(C(N)=O)cc5)cc4)nc32)CC1 (stereo not shown) [Example 306, 4-[({4-[1-(4-methoxycyclohexyl)-4-(8-oxa-3-azabicyclo[3.2.1]oct-3-yl)-1H-pyrazolo[3,4-d]pyrimidin-6-yl]phenyl}carbamoyl)amino]benzamide] | 8.10
6 |  |  |  | 7.77 | 6.57 | 4.83 | 9.05 | CCn1ncc2c(N3CC4CCC(C3)O4)nc(-c3ccc(NC(=O)Nc4ccc(NC)nc4)cc3)nc21 [Example 286, 1-{4-[1-ethyl-4-(8-oxa-3-azabicyclo[3.2.1]oct-3-yl)-1H-pyrazolo[3,4-d]pyrimidin-6-yl]phenyl}-3-[6-(methylamino)pyridin-3-yl]urea] | 6.70
7 | 5.03 | < 5.00 | < 5.20 | < 4.22 |  |  |  | CC(=O)N1CC2CN(c3nc(-c4ccc(NC(=O)Nc5ccncc5)cc4)nc4c3cnn4CC(F)(F)F)CC(C1)O2 [Example 339, 1-{4-[4-(7-acetyl-9-oxa-3,7-diazabicyclo[3.3.1]non-3-yl)-1-(2,2,2-trifluoroethyl)-1H-pyrazolo[3,4-d]pyrimidin-6-yl]phenyl}-3-pyridin-4-ylurea] | < 4.22
8 |  |  |  | 6.77 | < 5.00 | < 5.00 | 8.59 | CCNC(=O)Nc1ccc(-c2nc(N3CC4CCC(C3)O4)c3cnn(Cc4ccccc4)c3n2)cc1 [Example 78, 1-{4-[1-benzyl-4-(8-oxa-3-azabicyclo[3.2.1]oct-3-yl)-1H-pyrazolo[3,4-d]pyrimidin-6-yl]phenyl}-3-ethylurea] | 5.98
9 |  |  |  | > 9.00 | 7.17 | 5.82 | 9.92 | CCn1ncc2c(N3CC4CCC(C3)O4)nc(-c3ccc(NC(=O)Nc4ccc(CCO)cc4)cc3)nc21 [Example 183, 1-{4-[1-ethyl-4-(8-oxa-3-azabicyclo[3.2.1]oct-3-yl)-1H-pyrazolo[3,4-d]pyrimidin-6-yl]phenyl}-3-[4-(2-hydroxyethyl)phenyl]urea] | > 9.00

The next lines start with the compound.

Row | SMILES | pIC50 [1, 6] | pIC50 [2, 7] | pIC50 [3, 8] | pIC50 [5] | pIC50 ([1]; PI3 Kinase α) | pIC50 ([2]; PI3 Kinase γ) | pIC50 [3] | pIC50 [4]
10 | COC(=O)N1CCC(n2ncc3c(N4C5CCC4COC5)nc(-c4ccc(NC(=O)OCCO)cc4)nc32)CC1 [Example 355, methyl 4-[6-(4-{[(2-hydroxyethoxy)carbonyl]amino}phenyl)-4-(3-oxa-8-azabicyclo[3.2.1]oct-8-yl)-1H-pyrazolo[3,4-d]pyrimidin-1-yl]piperidine-1-carboxylate] | 5.13 | 5.17 | 9.11 | 7.24 |  |  |  | 6.66
11 | CCn1ncc2c(N3CC4CCC(C3)O4)nc(-c3cccc(O)c3)nc21 [Example 75, 3-[1-ethyl-4-(8-oxa-3-azabicyclo[3.2.1]oct-3-yl)-1H-pyrazolo[3,4-d]pyrimidin-6-yl]phenol] |  |  |  | 6.46 | 5.98 | < 5.00 | 7.57 | 5.89
12 | O=C1OCCN1c1ccc(-c2nc(N3CC4CCC(C3)O4)c3cnn(C4CCC5(CC4)OCCO5)c3n2)cc1 [Example 131, 3-{4-[1-(1,4-dioxaspiro[4.5]dec-8-yl)-4-(8-oxa-3-azabicyclo[3.2.1]oct-3-yl)-1H-pyrazolo[3,4-d]pyrimidin-6-yl]phenyl}-1,3-oxazolidin-2-one] |  |  |  | < 4.22 | < 5.00 | < 5.00 | 6.20 | < 4.22
13 | O=C(Nc1ccc(-c2nc(N3CC4CCC(C3)O4)c3cnn(C4CCC5(CC4)OCCO5)c3n2)cc1)OCCO [Example 121, 2-hydroxyethyl {4-[1-(1,4-dioxaspiro[4.5]dec-8-yl)-4-(8-oxa-3-azabicyclo[3.2.1]oct-3-yl)-1H-pyrazolo[3,4-d]pyrimidin-6-yl]phenyl}carbamate] |  |  |  | 8.70 | 5.12 | < 5.00 | 9.30 | 7.20
14 | O=C(Nc1ccccc1)Nc1ccc(-c2nc(N3CC4CCC(C3)O4)c3cnn(C4CCN(Cc5cccnc5)CC4)c3n2)cc1 [Example 17, 1-(4-{4-(8-oxa-3-azabicyclo[3.2.1]oct-3-yl)-1-[1-(pyridin-3-ylmethyl)piperidin-4-yl]-1H-pyrazolo[3,4-d]pyrimidin-6-yl}phenyl)-3-phenylurea] |  |  |  | 9.10 | 6.65 | 5.73 | 9.21 | 8.00
15 | N#CCCn1ncc2c(N3CC4CCC(C3)O4)nc(-c3ccc(NC(=O)OCCO)cc3)nc21 [Example 213, 2-hydroxyethyl {4-[1-(2-cyanoethyl)-4-(8-oxa-3-azabicyclo[3.2.1]oct-3-yl)-1H-pyrazolo[3,4-d]pyrimidin-6-yl]phenyl}carbamate] |  |  |  | 6.82 | 5.34 | < 5.00 | 8.90 | 6.00
16 | CCn1ncc2c(N3CC4CCC(C3)O4)nc(-c3ccc(NC(=O)NCCCN(C)C)cc3)nc21 [Example 177, 1-[3-(dimethylamino)propyl]-3-{4-[1-ethyl-4-(8-oxa-3-azabicyclo[3.2.1]oct-3-yl)-1H-pyrazolo[3,4-d]pyrimidin-6-yl]phenyl}urea] |  |  |  | 5.92 | 5.78 | < 5.00 | 7.16 | 5.35
17 | CC(C)(C)n1ncc2c(N3CC4CCC(C3)O4)nc(-c3ccc(NC(=O)NC4CC4)cc3)nc21 [Example 96] |  |  |  | 5.77 | 5.94 | < 5.00 | 9.40 | < 4.22
18 | COC(=O)N1CCC(n2ncc3c(N4CC5CCC(C4)O5)nc(-c4ccc(NC(=O)NCCN)cc4)nc32)CC1 [Example 168, methyl 4-[6-(4-{[(2-aminoethyl)carbamoyl]amino}phenyl)-4-(8-oxa-3-azabicyclo[3.2.1]oct-3-yl)-1H-pyrazolo[3,4-d]pyrimidin-1-yl]piperidine-1-carboxylate] |  |  |  | 5.82 | 6.66 | 5.49 | 8.50 | 5.05
19 | COC(=O)N1CCC(n2ncc3c(N4CC5CCC(C4)O5)nc(-c4ccc(NC(=O)NCCN5CCN(C)CC5)cc4)nc32)CC1 [Example 170, methyl 4-{6-[4-({[2-(4-methylpiperazin-1-yl)ethyl]carbamoyl}amino)phenyl]-4-(8-oxa-3-azabicyclo[3.2.1]oct-3-yl)-1H-pyrazolo[3,4-d]pyrimidin-1-yl}piperidine-1-carboxylate] |  |  |  | 5.89 | 6.15 | 5.35 | 7.29 | 5.22
20 | O=C(NCCF)Nc1ccc(-c2nc(N3CC4CCC(C3)O4)c3cnn(C4CCC5(CC4)OCCO5)c3n2)cc1 [Example 124, 1-{4-[1-(1,4-dioxaspiro[4.5]dec-8-yl)-4-(8-oxa-3-azabicyclo[3.2.1]oct-3-yl)-1H-pyrazolo[3,4-d]pyrimidin-6-yl]phenyl}-3-(2-fluoroethyl)urea] |  |  |  | 9.00 | 5.29 | < 5.00 | 9.65 | 7.70

Source: patent US8129371B2, “Thienopyrimidine and pyrazolopyrimidine compounds and their use as mTOR kinase and PI3 kinase inhibitors” (Wyeth LLC, priority 2007, dated 2012)
